Tests used:
Entamoeba Histolytica = assay: Systemic activity on hepatic abscess from Entamoeba Histolytica in the hamster; assay type: in vivo
Experimental: (B2) Systemic activity on hepatic abscess from Entamoeba Histolytica in the hamster Golden hamsters of the strain RRL-805 of about 50 grams weight are used; after laparatomy, 0.05 ml of a suspension of amoebae (cellular density of about 10^6 amoebae/ml) is injected into the right hepatic lobe. Abscesses develop on the liver, the average weight of which is determined after killing of the animals 72 hours after the injection. The drugs under examination are administered orally twice a day for four days, the treatment being started the day before the infection. The evaluation is carried out by comparing the average weight of the hepatic abscesses developed in the group of animals treated with a drug with that of a control group. The results obtained are recorded in Table 3 which gives the ED84 in mg/kg administered orally, that is the dose of the drug capable of reducing the weight of the abscesses by 84% with respect to the controls. The values given were calculated from the regression line obtained from the results of a series of experiments, each compound being administered to at least 5 groups of six animals at generally different doses.

[1] = cited from earlier work
Trichomonas Vaginalis = assay: Systemic activity in mice infected subcutaneously with Trichomonas Vaginalis; assay type: in vivo
Experimental: (B1) Systematic activity in mice infected subcutaneously with Trichomonas Vaginalis Female Charles River mice of about 20 grams weight are used and injected subcutaneously with 1 ml of a physiological solution containing 10^6 cells of Trichomonas Vaginalis (evaluated by means of counting in a Burker chamber), resulting from a 24 hour culture in Trichosel BBL substrate containing 15% in weight/volume of deactivated horse serum. Abscesses are thus developed in the place of infection which may burst open externally, piercing the skin. To establish the activity of a product, groups of 10 animals per tested dose are used, and on the 7th day the presence or absence of abscesses are determined (evaluated in terms of all or nothing). The compounds are administered orally, dissolved or in suspension in water, over 5 days, twice a day, the treatment being started 30 minutes after infection. The results obtained are recorded in Table 2 which gives the ED84 in mg/kg for oral administration, that is the dose of the drug capable of preventing the formation of the infection in 84% of the infected animals.

Structure (SMILES): O=[N+]([O-])c1cncn1CCN1CCOCC1 [Nimorazole, reference compound]
- ED84 (Entamoeba Histolytica; Entamoeba histolytica, 72 h, oral, twice a day for four days, dose reducing abscess weight by 84% vs controls, (S)/(NS) = significance of regression line, read-out: ED84, anti-amoebic activity in the hamster): 133 mg/kg
- Index of relative activity calc. on the ED84 (vs metronidazole), hamster (Entamoeba Histolytica; relative to metronidazole = 1): 0.8
- LD50, acute oral toxicity (data from literature, rat) [1]: 3180 mg/kg
- ED84 (Trichomonas Vaginalis; Trichomonas vaginalis, 168 h, oral, twice a day over 5 days, dose preventing infection in 84% of animals, (S)/(NS) = significance of regression line, read-out: ED84, anti-trichomonas activity in mice): 62.6 mg/kg
- Index of relative activity calc. on ED84 (vs metronidazole), mice (Trichomonas Vaginalis; relative to metronidazole = 1): 0.45

— US4272538A, “5-Nitro-imidazole with antiprotozoic activity” (Rotta Research Laboratorium S.p.A., priority 1978, dated 1981)
